≈ marks a conversion by molar mass, not a printed value. Entries after “also recorded” stand apart in the source; their conditions may differ. Where two headings read alike, the source gives them in different places. Each block holds one compound with its values, some of them ahead of it.
How the values were obtained:
[1] = test system: CAPAN pancreatic cancer cell line; test: MTT assay, Taxol with or without SNVIPhyb; assay type: cell-based
From the text: (§1) The ability of SNVIPhyb to inhibit cancer growth was investigated.

[2] = test system: MCF-7 breast cancer cells; test: MTT assay, Taxol with or without SNVIPhyb; assay type: cell-based; conditions: for IC50: Homo sapiens, MCF7
From the text: as §1

[3] = test system: NCI-H1299 lung cancer cell line; test: MTT assay, Taxol with or without SNVIPhyb; assay type: cell-based; conditions: Homo sapiens
From the text: as §1

[4] = test system: NCI-H157 lung cancer cell line; test: MTT assay, Taxol with or without SNVIPhyb; assay type: cell-based; conditions: Homo sapiens
From the text: as §1

[5] = test system: PC-3 prostate cancer cell line; test: MTT assay, Taxol with or without SNVIPhyb; assay type: cell-based
From the text: as §1

[6] = test system: NCI-H727 non-small cell lung cancer (carcinoid); test: MTS cell proliferation assay, SNH and chemotherapy; assay type: cell-based; conditions: for nature of the combined effect with SNH: combination with SNH
Experimental: NCI-H727 and LNCaP were grown in RPMI 1640 medium supplemented with 10% heat inactivated FCS, L-glutamine and antibiotics. HT-29 and CT-26 were grown in DMEM medium supplemented with 10% heat-inactivated FCS (fetal calf serum), L-glutamine and antibiotics. The cells were cultured in 5% CO2/95% air at […] and used during their exponential growth phase. Routinely, the cells which are adherent, were split when a subconfluent monolayer was formed. In different experiments, various concentration of FCS were used. For growth inhibition experiments, subconfluent adherent cells were washed with PBS and treated with trypsin/versene. The cells were pelleted and resuspended in medium to a final concentration of 75,000 cells/mL for NCI-H727. 50,000 cells/mL for LNCaP and HT-29 and 25000 cells/mL for CT-26. These different concentrations were used in order to avoid confluence in the wells at the end of the experiment and correspond to the different doubling times of the cell lines. On day 0, cells suspensions […] were dispensed using a multi-channel pipet into the individual wells of a 96-well tissue culture plate (Nuncion, Nunc Brand Products). […] Cells were incubated for 24 hours in a humidified atmosphere of 95% air/5% CO2 at 37° C. before treatment. On day 1, the cells were treated with different drugs and schedules and maintained under the same conditions. On day 4, viable cell number was determined by a modified MTT assay i.e., MTS non-radioactive cell proliferation assay (Promega). […] Results were finally expressed as percentage of the control, which was obtained from the samples with no drug treatment. Dose-response curves were plotted using a Sigma-Plot software and statistically analyzed using Student test. To determine the effect of the lipophilic VIP antagonist SNH on cell proliferation, cells plated in 96-well microplates for 24 hours as described, were treated with various concentrations of SNH. The peptide was diluted in PBS and […] of the peptide solution was added to each well for a final concentration of the peptide between 10^−510^−9 M. The solvent was added to the control wells. […] A dose-response curve was obtained at concentrations ranging from 2 μM-10 μM (see, FIG. 2). […] The effects of an 8 hours treatment were slightly less, showing that most of the effect is in the initial hours of exposure and much more dose than time dependent. […] For the experiments with the combinations of VIP antagonists and chemotherapeutic agents, on day 0, the cells were plated for 24 hours in medium supplemented with 5% FCS. On day 1, the peptide was added to the wells followed 1 hour later by the chemotherapeutic agents. […] The chemotherapeutic drugs were tested over 7 concentrations, covering as much as possible of the dose response curve of each individual drug. 24 hours later, the medium was exchanged and the cells incubated under the same conditions for another 48 hours. On day 4 the number of viable cells was determined by MTS assay.

MDA-MB231 xenografts = test: MDA-MB231 breast cancer xenografts in nude mice; assay type: in vivo, Balb/c nude mice; conditions: after 4 weeks; VIPhyb 10 μg/day s.c., Taxol 1.5 mg i.p. once; PBS control 1121 mm^3
Experimental: To test the proliferative aspects of VIPhybrid analogs in vivo, nude mice bearing breast cancer xenografts were utilized. Female athymic Balb/c nude mice, 4-5 weeks old, were housed in a pathogen-free temperature controlled isolation room and the diet consisted of autoclaved rodent chow and autoclaved water given ad libitum. MDA-MB231 cells (1×10^7) were injected into the right flank of each mouse subcutaneously. […] PBS (100 μl) or VIPhyb analogs (10 μg/day) were injected subcutaneously adjacent to the tumor. Taxol was injected once (1.5 mg i.p.) after 2 weeks. The tumor volume (height×width×depth) was determined twice weekly by calipers and recorded.

[7] = test system: NCI-H727 non-small cell lung cancer (carcinoid); test: MTS cell proliferation assay, SNH and chemotherapy; assay type: cell-based; conditions: 8 μM SNH 2 h, then Taxol 0.003-1 μg/ml 4 h, then fresh medium 66 h
[8] = test system: lung (NCI-H157 and NCI-H1299), breast (MCF-7), pancreatic (CAPAN) and prostate (PC-3) cancer cell lines; test: MTT assay, Taxol with or without SNVIPhyb, summary over epithelial cancer cell lines
From the text: The effects of SNVIPhyb were then investigated in the presence of Taxol, which affects microtubules, causing dividing cells to arrest in the mitosis (M) phase of growth.
The effect of SNVIPhyb was investigated on other epithelial cancer cell lines.

[9] = test system: cell lines derived from colon cancer and prostate cancer; test: MTS colorimetric proliferation assay, VIP antagonist with chemotherapeutic agents (Example I); assay type: cell-based; conditions: combination with stearyl-Nle17-neurotensis 6-11 VIP 7-28
Experimental: Assays were performed with cell lines derived from colon cancer and prostate cancer. Proliferation was assessed using the MTS colorimetric assay of mitochondrial function for living cells. The VIP antagonist (stearyl-Nle17-neurotensis 6-11 VIP 7-28) was used.

[10] = test system: CT-26 murine colon cancer; test: MTS cell proliferation assay, SNH and chemotherapy; assay type: cell-based; conditions: CT-26, SNH and CPT-11 (FIG. 10)
Experimental: NCI-H727 and LNCaP were grown in RPMI 1640 medium supplemented with 10% heat inactivated FCS, L-glutamine and antibiotics. HT-29 and CT-26 were grown in DMEM medium supplemented with 10% heat-inactivated FCS (fetal calf serum), L-glutamine and antibiotics. The cells were cultured in 5% CO2/95% air at […] and used during their exponential growth phase. Routinely, the cells which are adherent, were split when a subconfluent monolayer was formed. In different experiments, various concentration of FCS were used.
For growth inhibition experiments, subconfluent adherent cells were washed with PBS and treated with trypsin/versene. The cells were pelleted and resuspended in medium to a final concentration of 75,000 cells/mL for NCI-H727. 50,000 cells/mL for LNCaP and HT-29 and 25000 cells/mL for CT-26. […]
On day 4, viable cell number was determined by a modified MTT assay i.e., MTS non-radioactive cell proliferation assay (Promega). Briefly, […] of freshly prepared MTS/PMS solution was added to each individual well and after 1-3 hours of incubation (the optimal time was determined for each cell line) absorbance at 490 nm was measured using a multiscan plate reader. Results were finally expressed as percentage of the control, which was obtained from the samples with no drug treatment. Dose-response curves were plotted using a Sigma-Plot software and statistically analyzed using Student test. […]

HT-29 human colon cancer = test: MTS cell proliferation assay, SNH and chemotherapy; assay type: cell-based; conditions: HT-29, SNH and CPT-11 (FIG. 11)
Experimental: NCI-H727 and LNCaP were grown in RPMI 1640 medium supplemented with 10% heat inactivated FCS, L-glutamine and antibiotics. HT-29 and CT-26 were grown in DMEM medium supplemented with 10% heat-inactivated FCS (fetal calf serum), L-glutamine and antibiotics. The cells were cultured in 5% CO2/95% air at […] and used during their exponential growth phase. Routinely, the cells which are adherent, were split when a subconfluent monolayer was formed. In different experiments, various concentration of FCS were used. For growth inhibition experiments, subconfluent adherent cells were washed with PBS and treated with trypsin/versene. The cells were pelleted and resuspended in medium to a final concentration of 75,000 cells/mL for NCI-H727. 50,000 cells/mL for LNCaP and HT-29 and 25000 cells/mL for CT-26. These different concentrations were used in order to avoid confluence in the wells at the end of the experiment and correspond to the different doubling times of the cell lines. […] On day 4, viable cell number was determined by a modified MTT assay i.e., MTS non-radioactive cell proliferation assay (Promega). […] Results were finally expressed as percentage of the control, which was obtained from the samples with no drug treatment. Dose-response curves were plotted using a Sigma-Plot software and statistically analyzed using Student test. […] On day 4 the number of viable cells was determined by MTS assay.

IC50 ([1]; 10 μM SNVIPhyb, read-out: IC50 with 10 μM SNVIPhyb): 3 µg/mL (≈ 3.51 µM)
IC50 ([1]; Taxol alone, read-out: IC50): 10 µg/mL (≈ 11.7 µM)
IC50 ([2]; MCF-7, 3 μM SNVIPhyb, read-out: IC50 in the presence of 3 μM SNVIPhyb): 24 µg/mL
IC50 ([2]; MCF-7, 10 μM SNVIPhyb, read-out: IC50 with 10 μM SNVIPhyb): 2 µg/mL (≈ 2.34 µM)
IC50 ([2]; MCF-7, Taxol alone, read-out: IC50): 12 µg/mL (≈ 14.1 µM)
IC50 ([3]; NCI-H1299, 10 μM SNVIPhyb, read-out: IC50 with 10 μM SNVIPhyb): 3 µg/mL (≈ 3.51 µM)
IC50 ([3]; NCI-H1299, Taxol alone, read-out: IC50): 8 µg/mL (≈ 9.37 µM)
IC50 ([4]; NCI-H157, 10 μM SNVIPhyb, read-out: IC50 with 10 μM SNVIPhyb): 2.5 µg/mL (≈ 2.93 µM)
IC50 ([4]; NCI-H157, Taxol alone, read-out: IC50): 10 µg/mL (≈ 11.7 µM)
IC50 ([5]; PC-3, 10 μM SNVIPhyb, read-out: IC50 with 10 μM SNVIPhyb): 5 µg/mL (≈ 5.86 µM)
IC50 ([5]; PC-3, Taxol alone, read-out: IC50): 15 µg/mL (≈ 17.6 µM)
IC50 ([8]; read-out: IC50 values over the cell lines): 8 to 15 µg/mL (≈ 9.37 to 17.6 µM)
IC50 ([8]; read-out: IC50 values over the cell lines in the presence of 10 μM SNVIPhyb): 2.5 to 5 µg/mL
Structure (SMILES): CC(=O)O[C@H]1C(=O)[C@@]2(C)[C@H]([C@H](OC(=O)c3ccccc3)[C@]3(O)C[C@H](OC(=O)[C@H](O)[C@@H](NC(=O)c4ccccc4)c4ccccc4)C(C)=C1C3(C)C)[C@]1(OC(C)=O)CO[C@@H]1C[C@@H]2O [Taxol]
increase of cytotoxicity by SNVIPhyb ([2]; MCF-7, combination with SNVIPhyb): increases the cytotoxicity
effect on MCF-7 cells ([2]; Taxol at 1 μg/mL): little effect
nature of the combined effect with SNH [6]: very effective; also recorded: synergistic
tumor volume (height×width×depth) (MDA-MB231 xenografts): 613 mm^3
reduction of the IC50 of Taxol by SNH [7]: about 6 fold
interaction with SNVIPhyb at inhibiting cancer cell proliferation ([8]; combination with SNVIPhyb): synergistic
increase of potency in the presence of SNVIPhyb ([8]; epithelial cancer cells): 3-6 fold

Structure (SMILES): CCc1c2c(nc3ccc(OC(=O)N4CCC(N5CCCCC5)CC4)cc13)-c1cc3c(c(=O)n1C2)COC(=O)[C@]3(O)CC [CPT-11]
effect of the combination with the VIP antagonist [9]: synergistic
enhancement of the antiproliferative activity of the chemotherapeutic agent by the lipophilic VIP antagonist [9]: enhance the antiproliferative activity
reduction of the IC50 of the chemotherapeutic agent by SNH ([6]; 5 μM SNH, NCI-H727): at least two-fold
nature of the combined effect with SNH [6]: synergistic
effect of the combination with SNH [10]: enhancing effect
effect of the combination with SNH (HT-29 human colon cancer): enhancing effect
